Experimental data: patent US12534450B2, “Methods and compositions for targeting PD-L1” (Aligos Therapeutics, Inc., priority 2021, dated 2026)
pEC50, pIC50: −log10 of the molar value.

Assays:
PD-1/PD-L1 interaction = experiment: PD-1/PD-L1 NFAT Reporter Assay (co-culture of Jurkat T cells overexpressing PD-1 and PD-L1 expressing CHO cells); type: cell-based; settings: co-culture 6 hrs at 37° C., NFAT-mediated luciferase activity
Procedure: Blocking the PD-1/PD-L1 interaction will release the inhibitory signal and results in TCR signaling and NFAT-mediated luciferase activity.
CHO cells expressing surface-bound anti-CD3 antibodies and PD-L1 were first seeded overnight and treated with the compounds. Jurkat cells overexpressing PD-1 and a luciferase construct under NFAT promoter were then immediately seeded on the monolayer of CHO cells. The co-culture was then incubated for 6 hrs at 37° C. Luciferase activity was assessed by adding the ONE-Glo reagent and measuring luminescence with a plate reader. EC50 values were determined from the fit of the dose-response curves.

PD-1/PD-L1 PPI = PD-1/PD-L1 PPI (Homo sapiens, UniProt Q9NZQ7); experiment: PDL1/PD1 Binding Assay; settings: PDL1-6×His 0.3 nM, PD1-Fc-Avi-Biotin 2.5 nM, Acceptor/Donor beads, Envision reader
Chain of PD-1/PD-L1 PPI (Q9NZQ7 19-238 limits assumed): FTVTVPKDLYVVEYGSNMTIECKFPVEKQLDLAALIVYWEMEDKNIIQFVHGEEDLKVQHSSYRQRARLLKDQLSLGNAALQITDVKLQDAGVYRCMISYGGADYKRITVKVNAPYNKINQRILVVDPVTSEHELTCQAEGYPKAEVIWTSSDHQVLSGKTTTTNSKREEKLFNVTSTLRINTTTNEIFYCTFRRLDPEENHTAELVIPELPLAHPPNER
Procedure: Compounds to be tested were serially diluted in DMSO, and further diluted in assay buffer (25 mM Hepes pH 7.4, 150 mM NaCl, 0.005% Tween 20, BSA 0.01%). Diluted compounds were added to the wells with final concentration of DMSO at 1%. PDL1-6×His protein was added to the wells, mixed well with compound. The plates were incubated for 30 min at room temperature. PD1-Fc-Avi-Biotin protein was added to the wells. Final concentration of PDL1 and PD1 protein is 0.3 nM and 2.5 nM, respectively. After a binding time of 30 min at room temperature, Anti-6×His Acceptor beads (final concentration 20 ug/ml) were added to the wells, and the incubation continued for 1 h. Streptavidin Donor beads (final concentration 20 ug/mL) were added at reduced light. The plates were sealed with foil and incubated in the dark for additional 1 h or overnight before reading on an Envision reader. The IC50 values were determined by fitting the curves using a four-parameter equation in Graphpad Prism 8.

Row | Compound | pEC50 (PD-1/PD-L1 interaction; Homo sapiens, Jurkat, 6 h) | pIC50 (PD-1/PD-L1 PPI) | pEC50 (PD-1/PD-L1 interaction)
1 | COc1nc(-c2cc(F)cc(-c3cc(F)cc(NC(=O)c4cn(C)c(=O)n(C)c4=O)c3Cl)c2Cl)cc2c1[C@@H](NC[C@@H]1CCC(=O)N1)CC2 [Compound A-66] | 7.00 to 8.00 | ≥ 8.00 | –
2 | COc1nc(-c2cccc(-c3cccc(NC(=O)c4cn(C)c(=O)n(C)c4=O)c3Cl)c2Cl)cc2c1[C@H](N1CC3(CCNC3=O)C1)CC2 (single isomer, unassigned) [Compound A-22] | ≥ 8.00 | ≥ 8.00 | –
3 | COc1nc(-c2cccc(-c3cccc(NC(=O)c4cn(C)c(=O)n(C)c4=O)c3Cl)c2Cl)cc2c1C(N1CCN3C(=O)CC[C@H]3C1)CC2 (stereo partly shown) [Compound A-117] | 7.00 to 8.00 | ≥ 8.00 | –
4 | COCCOc1nc(-c2cccc(-c3cccc(NC(=O)c4cn(C)c(=O)n(C)c4=O)c3C)c2Cl)cc2c1[C@@H](NC[C@@H]1CCC(=O)N1)CC2 (single isomer, unassigned) [Compound A-115] | 7.00 to 8.00 | ≥ 8.00 | –
5 | COc1nc(-c2cccc(-c3cccc(NC(=O)c4ccnn(C)c4=O)c3C)c2F)cc2c1[C@@H](NC[C@@H]1CCC(=O)N1)CC2 [Compound A-45] | 7.00 to 8.00 | ≥ 8.00 | –
6 | COc1nc(-c2cccc(-c3cccc(NC(=O)c4cn(C)c(=O)n(C)c4=O)c3C)c2F)cc2c1[C@@H](NC[C@@H]1CCC(=O)N1)CC2 [Compound A-8] | ≥ 8.00 | ≥ 8.00 | –
7 | COc1nc(-c2cccc(-c3cccc(NC(=O)c4nn(C)c(=O)n(C)c4=O)c3Cl)c2Cl)cc2c1[C@@H](N[C@@H]1COC[C@@H]1O)CC2 (single isomer, unassigned) [Compound A-107] | ≥ 8.00 | ≥ 8.00 | –
8 | COc1nc(-c2cccc(-c3cccc(NC(=O)c4nn(C)c(=O)n(C)c4=O)c3C)c2C)cc2c1[C@@H](N[C@@H]1COC[C@@H]1O)CC2 (single isomer, unassigned) [Compound A-111] | 7.00 to 8.00 | ≥ 8.00 | –
9 | COc1nc(-c2cccc(-c3cccc(NC(=O)c4cn(C)c(=O)n(C)c4=O)c3C)c2Cl)cc2c1[C@H](NC[C@H]1CCC(=O)N1)CC2 (single isomer, unassigned) [Compound A-114] | ≥ 8.00 | ≥ 8.00 | –
10 | COc1nc(-c2cccc(-c3cccc(NC(=O)c4nn(C)c(=O)n(C)c4=O)c3C)c2Cl)cc2c1[C@@H](N[C@@H]1COC[C@@H]1O)CC2 (single isomer, unassigned) [Compound A-109] | ≥ 8.00 | ≥ 8.00 | –
11 | COc1nc(-c2cccc(-c3cccc(NC(=O)c4cn(C)c(=O)n(C)c4=O)c3C)c2Cl)cc2c1C(NC[C@@H]1CCC(=O)N1)C(C)C2 (stereo partly shown) [Compound A-121] | 7.00 to 8.00 | ≥ 8.00 | –
12 | COCCOc1nc(-c2cccc(-c3cccc(NC(=O)c4cn(C)c(=O)n(C)c4=O)c3C)c2Cl)cc2c1[C@H](NC[C@@H]1CCC(=O)N1)CC2 (single isomer, unassigned) [Compound A-116] | 5.00 to 6.00 | ≥ 8.00 | –
13 | COc1nc(-c2cc(F)cc(-c3cccc(NC(=O)c4cn(C)c(=O)n(C)c4=O)c3C)c2Cl)cc2c1[C@@H](NC[C@@H]1CCC(=O)N1)CC2 [Compound A-69] | ≥ 8.00 | ≥ 8.00 | –
14 | COc1nc(-c2cccc(-c3cccc(NC(=O)c4nn(C)c(=O)n(C)c4=O)c3C)c2C)cc2c1[C@@H](N[C@@H]1COC[C@H]1O)CC2 (single isomer, unassigned) [Compound A-103] | < 5.30 | 7.00 to 8.00 | –
15 | COc1nc(-c2cccc(-c3cccc(NC(=O)c4cn(C)c(=O)n(C)c4=O)c3Cl)c2Cl)cc2c1[C@H](N1CC(OC)C1)CC2 (single isomer, unassigned) [Compound A-25] | ≥ 8.00 | ≥ 8.00 | –
16 | COc1nc(-c2cccc(-c3cccc(NC(=O)c4cn(C)c(=O)n(C)c4=O)c3Cl)c2Cl)cc2c1[C@H](N[C@@H]1CCOC[C@@H]1O)CC2 (single isomer, unassigned) [Compound A-30] | 6.00 to 7.00 | ≥ 8.00 | –
17 | COc1nc(-c2cccc(-c3cccc(NC(=O)c4cn(C)c(=O)n(C)c4=O)c3F)c2C)cc2c1[C@@H](NC[C@@H]1CCC(=O)N1)CC2 [Compound A-6] | 7.00 to 8.00 | ≥ 8.00 | –
18 | COc1nc(-c2cccc(-c3cc(Cl)cc(NC(=O)c4cn(C)c(=O)n(C)c4=O)c3C)c2Cl)cc2c1[C@@H](NC[C@@H]1CCC(=O)N1)CC2 [Compound A-61] | 7.00 to 8.00 | ≥ 8.00 | –
19 | COc1nc(-c2cccc(-c3cccc(NC(=O)c4cn(C)c(=O)n(C)c4=O)c3Cl)c2Cl)cc2c1C(N)C(O)C2 (stereo not shown) [Compound A-120] | 7.00 to 8.00 | ≥ 8.00 | –
20 | COc1nc(-c2cccc(-c3cccc(NC(=O)c4cn(C)c(=O)[nH]c4=O)c3C)c2Cl)cc2c1[C@@H](NC[C@@H]1CCC(=O)N1)CC2 [Compound A-56] | 7.00 to 8.00 | ≥ 8.00 | –
21 | COc1nc(-c2cccc(-c3cccc(NC(=O)c4cn(C)c(=O)n(C)c4=O)c3C)c2Cl)cc2c1C(NC[C@@H]1CCC(=O)N1)C(O)C2 (single isomer, unassigned) [Compound A-127] | – | ≥ 8.00 | 6.00 to 7.00
22 | COc1nc(-c2cccc(-c3cccc(NC(=O)c4cn(C)c(=O)n(C)c4=O)c3C)c2Cl)cc2c1[C@@H](NC[C@H]1CCC(=O)N1)CC2 (single isomer, unassigned) [Compound A-113] | 5.00 to 6.00 | 7.00 to 8.00 | –
23 | COc1nc(-c2cccc(-c3cccc(NC(=O)c4cn(C)c(=O)n(C)c4=O)c3Cl)c2Cl)cc2c1[C@@H](N1CC3(CCC(=O)N3)C1)CC2 (single isomer, unassigned) [Compound A-20] | 7.00 to 8.00 | ≥ 8.00 | –
24 | COc1nc(-c2cccc(-c3cccc(NC(=O)c4cn(C)c(=O)n(C)c4=O)c3Cl)c2Cl)cc2c1[C@H](N1CC3(COCC(=O)N3)C1)CC2 (single isomer, unassigned) [Compound A-134] | ≥ 8.00 | ≥ 8.00 | –
25 | COc1nc(-c2cccc(-c3cc(F)cc(NC(=O)c4nn(C)c(=O)n(C)c4=O)c3C)c2C)cc2c1[C@@H](N[C@@H]1CCOC[C@@H]1O)CC2 (single isomer, unassigned) [Compound A-74] | 7.00 to 8.00 | ≥ 8.00 | –
26 | COc1nc(-c2cccc(-c3cccc(NC(=O)c4cn(C)c(=O)n(C)c4=O)c3Cl)c2Cl)cc2c1[C@H](N1CC3(CN(C(C)=O)C3)C1)CC2 (single isomer, unassigned) [Compound A-23] | ≥ 8.00 | ≥ 8.00 | –
27 | COc1nc(-c2cccc(-c3cccc(NC(=O)c4cn(C)c(=O)n(C)c4=O)c3C)c2C)cc2c1[C@H](N1CC(O)C1)CC2 (single isomer, unassigned) [Compound A-80] | 7.00 to 8.00 | ≥ 8.00 | –

Results, then the compound that gave them:

Row | pEC50 (PD-1/PD-L1 interaction; Homo sapiens, Jurkat, 6 h) | pIC50 (PD-1/PD-L1 PPI) | pEC50 (PD-1/PD-L1 interaction) | Compound
28 | 7.00 to 8.00 | ≥ 8.00 | – | COc1nc(-c2cccc(-c3cccc(NC(=O)c4cn(C)c(=O)n(C)c4=O)c3C)c2C)cc2c1C(N1CC(C)(O)C1)CC2 [Compound D-17]
29 | 7.00 to 8.00 | ≥ 8.00 | – | COc1nc(-c2cccc(-c3cccc(NC(=O)c4cn(C)c(=O)n(C)c4=O)c3C)c2C)cc2c1C(N1CC(C)(OC)C1)CC2 [Compound D-18]
30 | – | ≥ 8.00 | 6.00 to 7.00 | COc1nc(-c2cccc(-c3cccc(NC(=O)c4cn(C)c(=O)n(C)c4=O)c3C)c2Cl)cc2c1C(NC[C@@H]1CCC(=O)N1)C(F)C2 (single isomer, unassigned) [Compound K-1b]
31 | 7.00 to 8.00 | ≥ 8.00 | – | COc1nc(-c2cccc(-c3cccc(NC(=O)c4cn(C)c(=O)n(C)c4=O)c3C)c2Cl)cc2c1C(NCC(N)=O)CC2 [Compound D-9]
32 | ≥ 8.00 | ≥ 8.00 | – | COc1nc(-c2cccc(-c3cccc(NC(=O)c4cn(C)c(=O)n(C)c4=O)c3Cl)c2Cl)cc2c1[C@@H](N1CC(C(=O)O)C1)CC2 (single isomer, unassigned) [Compound J-3]
33 | ≥ 8.00 | ≥ 8.00 | – | COc1nc(-c2cccc(-c3cccc(NC(=O)c4ccnn(C)c4=O)c3C)c2Cl)cc2c1[C@@H](N1CC(C(=O)O)C1)CC2 (single isomer, unassigned) [Compound J-2]
34 | 7.00 to 8.00 | ≥ 8.00 | – | COc1nc(-c2cccc(-c3cccc(Nc4nccc5nccnc45)c3Cl)c2Cl)cc2c1[C@@H](NC[C@@H]1CCC(=O)N1)CC2 [Compound B-4]
35 | 7.00 to 8.00 | ≥ 8.00 | – | COc1nc(-c2cccc(-c3cccc(NC(=O)c4cn(C)c(=O)n(C)c4=O)c3Cl)c2Cl)cc2c1C(N1CC3(CCNC3)C1)CC2 (stereo not shown) [Compound G-1]
36 | 7.00 to 8.00 | ≥ 8.00 | – | COc1nc(-c2cccc(-c3cccc(NC(=O)c4cn(C)c(=O)n(C)c4=O)c3Cl)c2Cl)cc2c1C(N[C@@H]1COC[C@@H]1O)CC2 (stereo partly drawn) [Compound D-4]
37 | 7.00 to 8.00 | ≥ 8.00 | – | COc1nc(-c2cccc(-c3cccc(Nc4ncnc5cccnc45)c3Cl)c2Cl)cc2c1[C@@H](NC[C@@H]1CCC(=O)N1)CC2 [Compound B-2]
38 | 6.00 to 7.00 | 7.00 to 8.00 | – | COc1nc(-c2cccc(-c3cccc(NC(=O)c4cn(C)c(=O)n(C)c4=O)c3Cl)c2Cl)cc2c1C(N1CC3(CCN(C(=O)OC(C)(C)C)C3)C1)CC2 [Compound D-16]
